# Laboratory results reported in patent US20050127321A1, “Compositions containing lactone compatibilizers” (priority 2003, published 2005).
# What was measured:
# [1] = Phase separation temperature of compatibilizer / Zerol 150 alkylbenzene oil / R134a mixtures (cloud point on cooling); assay type: physicochemical; details: near 25.0 wt % Zerol 150 : 25.0 wt % compatibilizer : 50.0 wt % R134a, cooled in one degree intervals
# Description: The phase separation temperatures for lactone compatibilizers of the present invention when combined with Zerol® 150 alkylbenzene oil were determined. […] The glass tube was sealed at one end, and the other end was sealed to a Teflon® vacuum valve stopcock. This entire apparatus was tared, and was attached at valve E to a high vacuum line capable of achieving 10^−4 to 10^−5 torr (See FIG. 1). The pressure was measured by a mercury manometer, F. All five valves, A, B, C, D and E were attached to the manifold via greased ground-glass joints. Valve A joined the manifold to the source of refrigerant. Valve B joined a flask comprising fluorocarbon refrigerant, once loaded into the manifold. Valve C joined a 125.5 mL calibrated vessel to the manifold. And valve D joined a 5 mm OD in leg glass tube 150 mm in length containing oil and compatibilizer.
# The glass tube, refrigerant container, and calibrated volume were evacuated by opening valve B, C, D, and E, and keeping valve A closed. After vacuum was achieved, Valve D and E were closed. An atmosphere of refrigerant was introduced into the vacuum line by opening Valve A. After closing valve A, the refrigerant was condensed into the refrigerant container by cooling with a liquid nitrogen bath. Valve E was opened to remove any residual air. Valve E was closed, and the refrigerant container was allowed to warm until the desired pressure was reached as indicated on the mercury manometer whereupon Valve C was closed trapping a known amount of refrigerant in the calibrated volume. The excess refrigerant was condensed back into the refrigerant container by cooling with a liquid nitrogen bath, Valve B was closed, and Valve E was opened to remove all residual gases. The glass tube was cooled in a liquid nitrogen bath, and the refrigerant was transferred from the calibrated volume to the glass tube by closing Valve E, and opening Valves C and D. Valve D was then sealed after all the refrigerant had transferred into the glass tube. The glass tube apparatus was removed from the vacuum line, and the tube was allowed to warm while maintaining the tube behind appropriate protective shielding for safety purposes throughout the rest of the procedure owing to the positive pressure in the glass tube. After removal of grease from the ground glass joint, the previously tared glass tube apparatus was weighed to ensure the appropriate mass of refrigerant had been added to the tube. In a typical experiment, the composition in the tube was near 50.0 wt % R134a, 25.0 wt % Zerol® 150 and 25.0 wt % of compatibilizer.
# The phase separation temperature of the mixture was determined by manually shaking the contents of the glass tube while cooling the mixture by one degree Centigrade intervals until a cloudpoint/phase separation was visually observed. Results are shown in Table II in comparison with an amide compatibilizer, N-octyl-pyrrolidin-2-one.
# [2] = tested on: New Zealand White rabbits; test: Acute skin irritation/corrosive potential, scored on the Draize scale; assay type: in vivo; details: 0.5 mL undiluted, approximately 4 hours exposure, semi-occlusive, evaluated up to 72 hours
# Description: Compositions of the present invention were evaluated for acute skin irritation/corrosive potential in New Zealand White rabbits. An aliquot of 0.5 mL of undiluted compatibilizer was administered to a localized site on the backs of the animals. The test sites were covered with a semi-oclusive dressing to ensure contact between the skin and the test substance. The animals were exposed to the test substances for approximately 4 hours. The test sites were evaluated for erythrema, edema, and other evidence of dermal effects for up to 72 hours following the removal of the test substance. Observed dermal effects were scored according to the Draize scale. The reversibility of dermal effects was assessed for up to 14 days, as necessary.
# [3] = Kinematic viscosity of lactone compatibilizers; assay type: physicochemical; details: at 40° C.
Compound,Phase Separation Temperature [1],further results
CCCCCC1CCCC(=O)O1 (stereo not drawn) [delta-decalactone],−10 deg C,–
"(E,Z)-3-decylidene-5-methyl-dihydro-furan-2-one",13 deg C,–
"CCCCCCCCN1CCCC1=O [N-octylpyrrolidin-2-one, reference compound]",−4 deg C,Classification [2]: Severe irritant
O=C1OC[C@H]2CCCC[C@@H]12 (stereo in doubt) [Hexahydro-isobenzofuran-1-one],4 deg C,–
CCCCCCC[C@@H]1C[C@H](C)OC1=O (relative stereo) [cis-3-heptyl-5-methyl-dihydro-furan-2-one],phase gelled and/or precipitated at −11 deg C,–
CCCCCCCC[C@]1(C)CCC(=O)O1 (stereo in doubt) [5-methyl-5-octyl-dihydro-furan-2-one],−4 deg C,–
"CCCCCC=C1CC(C)OC1=O (stereo not drawn) [(E,Z)-3-Hexylidene-5-methyl-dihydro-furan-2-one]",−7 deg C,–
CCCCCC[C@]1(C)CCC(=O)O1 (stereo in doubt) [5-methyl-5-hexyl-dihydro-furan-2-one],−2 deg C,–
"CC=C1CC(C)OC1=O (stereo not drawn) [(E,Z)-3-ethylidene-5-methyl-dihydro-furan-2-one]",24 deg C,–
CCC[C@@H]1C[C@H](C)OC1=O [cis-(3-propyl-5-methyl)-dihydro-furan-2-one],14 deg C,–
CCCCCCCCC1CCC(=O)O1 (stereo not drawn) [gamma-dodecalactone],−6 deg C,–
CCCCCCC1CCOC1=O (stereo not drawn) [3-hexyldihydro-furan-2-one],5 deg C,–
CCCCCCCC1CCOC1=O (stereo not drawn) [3-heptyldihydro-furan-2-one],0 deg C,–
"CCCCCCCC=C1CC(C)OC1=O (stereo not drawn) [(E,Z)-3-octylidene-5-methyl-dihydro-furan-2-one]",−8 deg C,–
CCCCCCC1CCC(=O)O1 (stereo not drawn) [gamma-decalactone],−3 deg C,–
"CCCCC=C1CC(C)OC1=O (stereo not drawn) [(E,Z)-3-pentylidene-5-methyl-dihydro-furan-2-one]",0 deg C,–
CCCCCCC1CC(C)OC1=O (stereo not drawn) [3-hexyl-5-methyl-gammabutyrolactone],–,Classification [2]: Not a skin irritant; Observations (dermal effects) [2]: No irritation
"CCC=C1CC(C)OC1=O (stereo not drawn) [(E,Z)-3-propylidene-5-methyl-dihydro-furan-2-one]",12 deg C,–
CCCCCCCC1CCCC(=O)O1 (stereo not drawn) [delta-dodecalactone],−13 deg C,–

Compound,Phase Separation Temperature [1],further results
"CCC1CCC(=O)O1 (stereo not drawn) [gamma-caprolactone, reference compound]",Immiscible with Zerol ®150,–
"CC(CC[C@@H]1C[C@H](C)OC1=O)CC(C)(C)C (relative stereo) [cis-3-(3,5,5-trimethylhexyl)-5-methyl-dihydro-furan-2-one]",2 deg C,–
"CCCCCCCCC(=O)N(C)C [N,N-Dimethylnonanamide]",–,Classification [2]: Severe irritant
"CC1C/C(=C/C2CCCCC2)C(=O)O1 (stereo not drawn) [(E,Z)-3-cyclohexylmethylidene-5-methyl-dihydrofuran-2-one]",−2 deg C,–
"CCCCCCCCC=C1CC(C)OC1=O (stereo not drawn) [(E,Z)-3-nonylidene-5-methyl-dihydro-furan-2-one]",4 deg C,–
5-methyl-n-octyl-pyrrolidin-2-one,–,Classification [2]: Corrosive; Observations (dermal effects) [2]: Necrosis
CCCC[C@@H]1C[C@H](C)OC1=O [cis-(3-butyl-5-methyl)-dihydro-furan-2-one],10 deg C,–
CC[C@@H]1C[C@H](C)OC1=O (relative stereo) [cis-3-ethyl-5-methyl-dihydro-furan-2-one],>25 deg C,–
CCCCC[C@@H]1C[C@H](C)OC1=O [cis-(3-pentyl-5-methyl)-dihydro-furan-2-one],−1 deg C,–
CCCCCC1CCC(=O)O1 (stereo not drawn) [gamma-nonalactone],−2 deg C,–
CCCCCC[C@@H]1C[C@H](C)OC1=O (relative stereo) [cis-3-hexyl-5-methyl-dihydro-furan-2-one],−9 deg C,kinematic viscosity [3]: 4.5 centistokes
"CCCCOC(=O)c1ccccc1C(=O)OCCCC [dibutyl phthalate, reference compound]",18 deg C,–
"CC(CC=C1C[C@@H](C)OC1=O)CC(C)(C)C (stereo partly drawn) [(E,Z)-3-(3,5,5-trimethylhexylidene)-5-methyl-dihydrofuran-2-one]",3 deg C,–
CCCCC1CCC(=O)O1 (stereo not drawn) [gamma-octalactone],10 deg C,–
CC1CCC(=O)N1C1CCCCC1 (stereo not drawn) [5-methyl-n-cyclohexyl pyrrolidin-2-one],–,Classification [2]: Corrosive; Observations (dermal effects) [2]: Necrosis
"CCCC=C1CC(C)OC1=O (stereo not drawn) [(E,Z)-3-butylidene-5-methyl-dihydro-furan-2-one]",9 deg C,–
"CCCCCCC=C1CC(C)OC1=O (stereo not drawn) [(E,Z)-3-Heptylidene-5-methyl-dihydro-furan-2-one]",−6 deg C,–
CCCCCCC1CCCC(=O)O1 (stereo not drawn) [delta-undecalactone],−12 deg C,–
